Results reported in ChEMBL document CHEMBL1127167, “Synthesis and in vitro acetylcholinesterase inhibitory activity of some 1-substituted analogues of velnacrine” (Bioorg Med Chem Lett, 1993).

target: T1, Acetylcholinesterase (Rattus norvegicus, UniProt P37136); assay: Inhibition of acetylcholinesterase from rat striatal tissue; assay type: tissue-based, Striatum
T1 sequence (P37136 whole entry): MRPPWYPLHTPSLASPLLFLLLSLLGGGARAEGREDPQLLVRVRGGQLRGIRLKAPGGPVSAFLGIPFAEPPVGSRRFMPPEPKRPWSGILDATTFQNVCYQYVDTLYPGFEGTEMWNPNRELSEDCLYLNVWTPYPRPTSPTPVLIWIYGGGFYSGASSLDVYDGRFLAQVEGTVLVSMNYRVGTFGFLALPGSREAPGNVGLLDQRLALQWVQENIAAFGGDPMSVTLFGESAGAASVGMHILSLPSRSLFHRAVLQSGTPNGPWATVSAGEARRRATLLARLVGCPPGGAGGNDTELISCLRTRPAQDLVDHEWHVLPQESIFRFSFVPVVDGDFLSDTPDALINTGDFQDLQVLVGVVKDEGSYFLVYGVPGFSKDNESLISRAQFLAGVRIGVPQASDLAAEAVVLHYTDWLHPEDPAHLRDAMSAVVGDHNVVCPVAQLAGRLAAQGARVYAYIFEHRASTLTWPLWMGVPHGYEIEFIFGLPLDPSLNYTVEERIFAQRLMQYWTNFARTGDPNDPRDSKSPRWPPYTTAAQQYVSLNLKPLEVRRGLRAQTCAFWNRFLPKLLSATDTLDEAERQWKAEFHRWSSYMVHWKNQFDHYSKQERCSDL

SMILES | IC50
CCOC1CCCc2nc3ccccc3c(N)c21 (stereo unspecified) | 0.298 µM
Nc1c2c(nc3ccccc13)CCCC2N1CCN(c2ccccc2)CC1 (stereo unspecified) | > 100 µM
[N-]=[N+]=NC1CCCc2nc3ccccc3c(N)c21 (stereo unspecified) | 11.8 µM
Nc1c2c(nc3ccccc13)CCCC2N (stereo unspecified) | 8.59 µM
CCCNC1CCCc2nc3ccccc3c(N)c21 (stereo unspecified) | 12.5 µM
CCNC1CCCc2nc3ccccc3c(N)c21 (stereo unspecified) | 4.79 µM
CC1=NC2CCCc3nc4ccccc4c(c32)N1 (stereo unspecified) | > 100 µM
COC1CCCc2nc3ccccc3c(N)c21 (stereo unspecified) | 4.74 µM
Nc1c2c(nc3ccccc13)CCCC2O (stereo unspecified) [VELNACRINE] | 3.64 µM
Nc1c2c(nc3ccccc13)CCCC2NCc1ccccc1 (stereo unspecified) | 20.1 µM
COc1ccc(CNC2CCCc3nc4ccccc4c(N)c32)cc1OC (stereo unspecified) | 38.4 µM
Nc1c2c(nc3ccccc13)CCCC2N1CCOCC1 (stereo unspecified) | > 100 µM
c1ccc(C2=NC3CCCc4nc5ccccc5c(c43)N2)cc1 (stereo unspecified) | > 100 µM
CCCOC1CCCc2nc3ccccc3c(N)c21 (stereo unspecified) | 0.193 µM
CC(=O)NC1CCCc2nc3ccccc3c(N)c21 (stereo unspecified) | 64.9 µM
CCCCOC1CCCc2nc3ccccc3c(N)c21 (stereo unspecified) | 1.9 µM
CCCCCC(=O)NC1CCCc2nc3ccccc3c(N)c21 (stereo unspecified) | 51.8 µM
Nc1c2c(nc3ccccc13)CCCC2N1CCCC1 (stereo unspecified) | 18 µM
Nc1c2c(nc3ccccc13)CCCC2Nn1cccc1 (stereo unspecified) | 8.16 µM
COc1ccc(C2CCCc3nc4ccccc4c(N)c32)c(OC)c1 (stereo unspecified) | 4.82 µM
Nc1c2c(nc3ccccc13)CCCC2NCCc1ccccc1 (stereo unspecified) | 18.6 µM
CN1CCN(C2CCCc3nc4ccccc4c(N)c32)CC1 (stereo unspecified) | > 100 µM
CCCCNC1CCCc2nc3ccccc3c(N)c21 (stereo unspecified) | 48.8 µM
Nc1c2c(nc3ccccc13)CCCC2c1cccs1 (stereo unspecified) | 0.49 µM
Nc1c2c(nc3ccccc13)CCCC2N1CCCCC1 (stereo unspecified) | 8.4 µM
Nc1c2c(nc3ccccc13)CCCC2N1CCC(c2ccccc2)CC1 (stereo unspecified) | > 100 µM
